{"source": "paper PMC4603705", "about": "“A bioinspired peptide scaffold with high antibiotic activity and low in vivo toxicity” (Scientific Reports, 2015)", "key": {"S. aureus ATTC 6538": {"tested_on": "S. aureus ATTC 6538", "assay": "microbe, parasite or virus in culture", "format": "cell-based, Staphylococcus aureus", "conditions": "Staphylococcus aureus, ATTC6538, read-out: MIC S. aureus", "method": "(§1) MICs were measured after 18–20 h of incubation in sterile 96-well plates (Corning Costar 3598 microtiter plates) in Mueller Hinton Broth (MHB) culture medium, (Difco, USA), according to well known in vitro protocols. Bacterial strains in Table 1 were: P. aeruginosa ATTC 9027, E. coli ATTC 8739, S. aureus ATTC 6538, and E. faecalis ATTC 29212. MICs shown in table 4 were performed by Mary Conrad at Cubist Pharmaceuticals (Lexington, MA) in non-binding surface plates."}, "S. aureus": {"tested_on": "S. aureus", "assay": "microbe, parasite or virus in culture", "format": "cell-based, Staphylococcus aureus", "conditions": "Staphylococcus aureus", "method": "as §1"}, "E. faecalis ATTC 29212": {"tested_on": "E. faecalis ATTC 29212", "assay": "microbe, parasite or virus in culture", "format": "cell-based, Enterococcus faecalis", "conditions": "Enterococcus faecalis, ATTC29212, read-out: MIC E. faecalis Wild type ATTC 29212", "method": "Lipopeptide 39 was chosen for this, as it is known that long fatty acids tend to favor activity against Gram-positive bacteria in polymyxin analogs. […] In summary, new broad-spectrum antimicrobial lipopeptides were achieved.\nas §1"}, "E. coli (ATCC 25922) [1]": {"tested_on": "E. coli (ATCC 25922)", "assay": "Flow cytometry (PI membrane permeability, BOX membrane potential), E. coli", "format": "cell-based, Escherichia coli", "conditions": "5 μg/mL", "method": "The mechanism of action at the membrane level of our best candidate was studied using flow cytometry. To assess membrane permeability, a propidium iodide (PI) probe was used[43][44]. The fluorescence conferred by this probe is generally associated with cells that have lost their membrane integrity. The effect on membrane potential was evaluated with bis-(1,3-dibutylbarbituric acid) trimethine oxonol (BOX). Membrane depolarization leads to the incorporation of this anionic dye into the cell where it binds to lipid-rich intracellular compounds, resulting in an increase in fluorescence.\n(§2) An overnight culture (12 to 16 h) of S. aureus (ATCC 29213) or E. coli (ATCC 25922) in Tryptic Soy Broth (TSB) was grown at 37 °C and 400 μL were added in 50 mL of tryptone water (∼10^7 bacteria/mL). The bacterial suspension was split into aliquots of 4-5 mL and treated with the peptides (at the MIC) for different incubation times at room temperature. Cells were collected by centrifugation (10000 rpm, 20 min) and resuspended in 1 mL of filtered Ringer’s solution.\nA stock solution of propidium iodide (PI, 1 mg/mL, Molecular Probes) and bis-(1,3-dibutylbarbituric acid) trimethine oxonol (BOX, 250 μM, Sigma Aldrich) was prepared in distilled water. Portions (10 μL and 2 μL, respectively) were added to aliquots of cells (100 μL of each sample in 1 mL of Ringer’s solution) to give a final concentration of 10 μg/mL of PI and 0.5 μM for BOX.\nFlow cytometric measurements were performed on a Gallios multi-colour flow cytometer instrument (Beckman Coulter, Inc, Fullerton, CA) set up with the 3-lasers 10 colors standard configuration. Excitation was done using a blue (488 nm) laser. Forward scatter (FS), side scatter (SS), green fluorescence (525/40 nm) from BOX and red fluorescence (620/30 nm) emitted by PI were collected using logarithmic scales. FS was used as the discriminating parameter. The single-cell bacterial population was selected on a forward-side scatter plot. Fluorescence was presented in a dot plot of BOX vs. PI. Three regions were defined on this graph according to the controls: depolarized, permeabilized and non-affected cells. Control cells (non-stained and single stained populations) were used to define these regions. 25,000 cells defined according to their scatter parameters were counted in each sample."}, "E. coli (ATCC 25922) [2]": {"tested_on": "E. coli (ATCC 25922)", "assay": "Reduction of viability by plate count, E. coli", "format": "cell-based, Escherichia coli", "conditions": "5 μg/mL", "method": "as §2"}, "[3]": {"conditions": "no reference given, cited from earlier work"}, "E. coli": {"tested_on": "E. coli", "method": "(§3) Strains of E. coli and P. aeruginosa with resistance to quinolones and carbapenems as well as multi-drug-resistant bacteria were tested.\nas §1"}, "P. aeruginosa": {"tested_on": "P. aeruginosa", "method": "as §3, §1"}, "[4]": {"conditions": "resistant to nalidixic acid, cotrimoxazole and ampicillin"}}, "note": "Where “and” joins values, the source holds several entries; their conditions need not be identical. Equal values may be shown once. Read-outs that look alike come from different tables or passages of the source.", "data": [{"compound": "CN[C@H](CC(C)C)C(=O)N[C@H]1C(=O)N[C@@H](CC(N)=O)C(=O)N[C@H]2C(=O)N[C@H]3C(=O)N[C@H](C(=O)N[C@H](C(=O)O)c4cc(O)cc(O)c4-c4cc3ccc4O)[C@H](O)c3ccc(c(Cl)c3)Oc3cc2cc(c3O[C@@H]2O[C@H](CO)[C@@H](O)[C@H](O)[C@H]2O[C@H]2C[C@](C)(N)[C@H](O)[C@H](C)O2)Oc2ccc(cc2Cl)[C@H]1O", "note": "[Vancomycin]", "values": [{"measurement": "MIC", "setting": "S. aureus ATTC 6538", "result": 1, "unit": "µg/mL"}, {"measurement": "MIC", "setting": "S. aureus; read-out: MIC S. aureus DR, MR SAU.1616", "result": 2, "unit": "µg/mL"}, {"measurement": "MIC", "setting": "S. aureus; read-out: MIC S. aureus DR, MS SAU.278", "result": 2, "unit": "µg/mL"}, {"measurement": "MIC", "setting": "S. aureus; read-out: MIC S. aureus MR ATTC 43300", "result": 2, "unit": "µg/mL"}, {"measurement": "MIC", "setting": "S. aureus; read-out: MIC S. aureus MR SAU.1118", "result": 0.5, "unit": "µg/mL"}, {"measurement": "MIC", "setting": "S. aureus; read-out: MIC S. aureus MS ATTC 29213", "result": "0.5 to 1", "unit": "µg/mL"}, {"measurement": "MIC", "setting": "E. faecalis ATTC 29212", "result": 2, "unit": "µg/mL"}]}, {"compound": "PxB nonapeptide [PxBN]", "values": [{"measurement": "% of stained cells BOX", "setting": "E. coli (ATCC 25922) [1]; 30 min", "result": 5, "unit": "%"}, {"measurement": "% of stained cells PI", "setting": "E. coli (ATCC 25922) [1]; 30 min", "result": 10, "unit": "%"}, {"measurement": "% of stained cells BOX", "setting": "E. coli (ATCC 25922) [1]; 60 min", "result": "3%-6% and 6%"}, {"measurement": "% of stained cells PI", "setting": "E. coli (ATCC 25922) [1]; 60 min", "result": "3%-6% and 3%"}, {"measurement": "% viability reduction", "setting": "E. coli (ATCC 25922) [2]; 30 min", "result": 0, "unit": "%"}, {"measurement": "% viability reduction", "setting": "E. coli (ATCC 25922) [2]; 60 min", "result": 5, "unit": "%"}]}, {"compound": "Somatostatin", "values": [{"measurement": "half-life", "setting": "[3]; administered in vivo", "result": "2 to 3", "unit": "min"}]}, {"compound": "colistin [PxE, reference compound]", "values": [{"measurement": "MIC E. coli NDM-1", "setting": "E. coli; highly-resistant, New Delhi metallo-beta-lactamase gene", "result": 0.5, "unit": "µg/mL"}, {"measurement": "MIC E. coli VAL 5", "setting": "E. coli; resistant to nalidixic acid", "result": 0.25, "unit": "µg/mL"}, {"measurement": "MIC E. coli MAC 21a", "setting": "E. coli; [4]", "result": 0.5, "unit": "µg/mL"}, {"measurement": "MIC E. coli VAL 10", "setting": "E. coli; [4]", "result": 0.5, "unit": "µg/mL"}, {"measurement": "MIC P. aeruginosa 38a", "setting": "P. aeruginosa; resistant to ceftazidime, ciprofloxacin, imipenem, piperacillin-tazobactam", "result": 1, "unit": "µg/mL"}, {"measurement": "MIC P. aeruginosa 40b", "setting": "P. aeruginosa; resistant to imipenem", "result": 1, "unit": "µg/mL"}]}, {"compound": "lanreotide [reference compound]", "values": [{"measurement": "half-lives", "setting": "[3]; metabolic degradation", "result": "2 to 3", "unit": "h"}]}]}
